Literature values, collected in patent US20080152704A1, “Dosage Forms of Palonosetron Hydrochloride Having Improved Stability and Bioavailability” (priority 2006, published 2008).

How the values were obtained:
[1] = test system: dopamine receptors
[2] = target: T1, 5-HT3 receptor (Homo sapiens, UniProt P46098)
T1 sequence (P46098 24-478): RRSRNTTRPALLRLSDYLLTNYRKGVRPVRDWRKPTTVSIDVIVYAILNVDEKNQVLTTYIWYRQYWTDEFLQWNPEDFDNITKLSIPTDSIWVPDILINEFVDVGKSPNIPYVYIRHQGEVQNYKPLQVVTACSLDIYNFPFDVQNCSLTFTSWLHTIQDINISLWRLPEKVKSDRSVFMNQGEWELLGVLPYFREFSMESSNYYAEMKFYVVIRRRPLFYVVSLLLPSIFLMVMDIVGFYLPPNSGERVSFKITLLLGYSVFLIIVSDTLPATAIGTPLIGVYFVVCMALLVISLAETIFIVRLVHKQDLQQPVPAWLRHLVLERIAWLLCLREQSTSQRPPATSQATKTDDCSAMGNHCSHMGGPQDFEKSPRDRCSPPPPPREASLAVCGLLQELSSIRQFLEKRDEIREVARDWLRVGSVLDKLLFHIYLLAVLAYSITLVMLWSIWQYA

affinity for other receptors such as dopamine receptors [1]: low affinity | affinity as an antagonist for the 5-HT3 receptor [2]: high affinity
SMILES: Cl.O=C1c2cccc3c2[C@H](CCC3)CN1[C@@H]1CN2CCC1CC2 [Palonosetron, (3aS)-2-[(S)-1-Azabicyclo [2.2.2]oct-3-yl]-2,3,3a,4,5,6-hexahydro-1-oxo-1Hbenz[de] isoquinoline hydrochloride]
